Measurements reported in ChEMBL document CHEMBL1201862, “PubChem BioAssay data set” (2004).
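Each compound was tested at five concentrations against cells in 96-well plates for 48 hours. Abbreviation: GI50, concentration required for 50% inhibition of growth.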 Activity calls are given as the source filed them. Cut-off read from the data, not from the text of the source: active = GI50 up to about 1.1 µM and inactive = higher.

Key:
Assay in all cases: NCI anticancer screen, dose series, 48 h
A549 = tested on: A549
NCI-H460 = tested on: NCI-H460
SK-MEL-5 = tested on: SK-MEL-5
UO-31 = tested on: UO-31
SF-295 = tested on: SF-295
SNB-78 = tested on: SNB-78
SK-MEL-2 = tested on: SK-MEL-2
SW-620 = tested on: SW-620
HCT-116 = tested on: HCT-116
TK-10 = tested on: TK-10
CCRF-CEM = tested on: CCRF-CEM
HOP-92 = tested on: HOP-92
MOLT-4 = tested on: MOLT-4
LXFL 529 = tested on: LXFL 529
K562 = tested on: K562
OVCAR-4 = tested on: OVCAR-4
KM-20L2 = tested on: KM-20L2
SNB-19 = tested on: SNB-19
HT-29 = tested on: HT-29
UACC-257 = tested on: UACC-257
NCI-H226 = tested on: NCI-H226
U-251 = tested on: U-251
HL-60 = tested on: HL-60
DMS-273 = tested on: DMS-273
SK-MEL-28 = tested on: SK-MEL-28
IGROV-1 = tested on: IGROV-1
SF-268 = tested on: SF-268
M14 = tested on: M14
EKVX = tested on: EKVX
SK-OV-3 = tested on: SK-OV-3
KM12 = tested on: KM12
XF498 = tested on: XF498
HCT-15 = tested on: HCT-15
786-0 = tested on: 786-0
RXF 393 = tested on: RXF 393
LOX IMVI = tested on: LOX IMVI
M19-MEL = tested on: M19-MEL
SNB-75 = tested on: SNB-75
SF-539 = tested on: SF-539
COLO 205 = tested on: COLO 205
HOP-18 = tested on: HOP-18
DMS-114 = tested on: DMS-114
NCI-H23 = tested on: NCI-H23
NCI-H522 = tested on: NCI-H522
A498 = tested on: A498
RPMI-8226 = tested on: RPMI-8226
OVCAR-5 = tested on: OVCAR-5
OVCAR-3 = tested on: OVCAR-3
RXF 631 = tested on: RXF 631
CAKI-1 = tested on: CAKI-1
OVCAR-8 = tested on: OVCAR-8
Malme-3M = tested on: Malme-3M
SN12C = tested on: SN12C
UACC-62 = tested on: UACC-62
ACHN = tested on: ACHN
HCC 2998 = tested on: HCC 2998
DLD-1 = tested on: DLD-1
SR = tested on: SR
HOP-62 = tested on: HOP-62

Compound: O=P(c1ccccc1)(c1ccccc1)C1CC=C2CCCCCC2C1 (centres undefined)
- GI50 (A549): > 10 µM (inactive)
- GI50 (NCI-H460): 32.7 µM (inactive)
- GI50 (SK-MEL-5): 19.2 µM (inactive)
- GI50 (UO-31): 21.8 µM (inactive)
- GI50 (SF-295): 41.3 µM (inactive)
- GI50 (SNB-78): 40.2 µM (inactive)
- GI50 (SK-MEL-2): 29.9 µM (inactive)
- GI50 (SW-620): > 10 µM (inactive)
- GI50 (HCT-116): 19.6 µM (inactive)
- GI50 (TK-10): 58.7 µM (inactive)
- GI50 (CCRF-CEM): 23.6 µM (inactive)
- GI50 (HOP-92): 11 µM (inactive)
- GI50 (MOLT-4): 18.8 µM (inactive)
- GI50 (LXFL 529): 21.4 µM (inactive)
- GI50 (K562): 28.3 µM (inactive)
- GI50 (OVCAR-4): 26.2 µM (inactive)
- GI50 (KM-20L2): > 10 µM (inactive)
- GI50 (SNB-19): 27.6 µM (inactive)
- GI50 (HT-29): 37.2 µM (inactive)
- GI50 (UACC-257): 25 µM (inactive)
- GI50 (NCI-H226): 26.3 µM (inactive)
- GI50 (U-251): 67 µM (inactive)
- GI50 (HL-60): 27.2 µM (inactive)
- GI50 (DMS-273): 27.4 µM (inactive)
- GI50 (SK-MEL-28): > 10 µM (inactive)
- GI50 (IGROV-1): 37.6 µM (inactive)
- GI50 (SF-268): 23.3 µM (inactive)
- GI50 (M14): 21.8 µM (inactive)
- GI50 (EKVX): 37.9 µM (inactive)
- GI50 (SK-OV-3): 36.9 µM (inactive)
- GI50 (KM12): 38.5 µM (inactive)
- GI50 (XF498): 33 µM (inactive)
- GI50 (HCT-15): 37.2 µM
- GI50 (786-0): 22.6 µM (inactive)
- GI50 (RXF 393): 28.8 µM (inactive)
- GI50 (LOX IMVI): 26.1 µM (inactive)
- GI50 (M19-MEL): 36 µM (inactive)
- GI50 (SNB-75): 25.1 µM (inactive)
- GI50 (SF-539): > 10 µM (inactive)
- GI50 (COLO 205): 24.1 µM (inactive)
- GI50 (HOP-18): 19.2 µM (inactive)
- GI50 (DMS-114): 24.5 µM (inactive)
- GI50 (NCI-H23): 30.2 µM (inactive)
- GI50 (NCI-H522): 17.2 µM (inactive)
- GI50 (A498): 35.9 µM (inactive)
- GI50 (RPMI-8226): 16.1 µM (inactive)
- GI50 (OVCAR-5): 23.2 µM (inactive)
- GI50 (OVCAR-3): 23.8 µM (inactive)
- GI50 (RXF 631): 27.2 µM (inactive)
- GI50 (CAKI-1): 23.7 µM (inactive)
- GI50 (OVCAR-8): 31 µM (inactive)
- GI50 (Malme-3M): 38.9 µM (inactive)
- GI50 (SN12C): 30.6 µM (inactive)
- GI50 (UACC-62): 23.9 µM (inactive)

Compound: COc1ccc(/C=N/N=C(\N)NO)cc1F
- GI50 (A549): 14.3 µM (inactive)
- GI50 (NCI-H460): 11.9 µM (inactive)
- GI50 (SK-MEL-5): 5.02 µM (inactive)
- GI50 (UO-31): 14 µM (inactive)
- GI50 (ACHN): 10.1 µM (inactive)
- GI50 (SF-295): 23 µM (inactive)
- GI50 (SNB-78): 97.3 µM (inactive)
- GI50 (SK-MEL-2): 13.3 µM (inactive)
- GI50 (SW-620): 41.2 µM (inactive)
- GI50 (HCT-116): 27 µM (inactive)
- GI50 (TK-10): 43 µM (inactive)
- GI50 (CCRF-CEM): 33.7 µM (inactive)
- GI50 (HOP-92): 22.2 µM (inactive)
- GI50 (MOLT-4): 31.1 µM (inactive)
- GI50 (LXFL 529): 11.6 µM (inactive)
- GI50 (K562): 8 µM (inactive)
- GI50 (OVCAR-4): 7.45 µM (inactive)
- GI50 (KM-20L2): 9.02 µM (inactive)
- GI50 (SNB-19): 37.6 µM (inactive)
- GI50 (HT-29): 12.9 µM (inactive)
- GI50 (UACC-257): 46.6 µM (inactive)
- GI50 (NCI-H226): 5.42 µM (inactive)
- GI50 (U-251): 25 µM (inactive)
- GI50 (HL-60): 27.4 µM (inactive)
- GI50 (DMS-273): 17.5 µM (inactive)
- GI50 (SK-MEL-28): > 100 µM (inactive)
- GI50 (IGROV-1): 31.3 µM (inactive)
- GI50 (SF-268): 17.1 µM (inactive)
- GI50 (M14): 14.2 µM (inactive)
- GI50 (EKVX): 8.13 µM (inactive)
- GI50 (SK-OV-3): 24.5 µM (inactive)
- GI50 (HCC 2998): 11.4 µM (inactive)
- GI50 (KM12): 29.4 µM (inactive)
- GI50 (XF498): 25.3 µM (inactive)
- GI50 (HCT-15): 18.6 µM
- GI50 (786-0): 13.7 µM (inactive)
- GI50 (RXF 393): 38.2 µM (inactive)
- GI50 (LOX IMVI): 10.4 µM (inactive)
- GI50 (M19-MEL): 21.6 µM (inactive)
- GI50 (SNB-75): 27.4 µM (inactive)
- GI50 (SF-539): 21.9 µM (inactive)
- GI50 (COLO 205): 10.5 µM (inactive)
- GI50 (DLD-1): 53.7 µM (inactive)
- GI50 (HOP-18): 13.8 µM (inactive)
- GI50 (NCI-H23): 29.9 µM (inactive)
- GI50 (NCI-H522): 22.1 µM (inactive)
- GI50 (RPMI-8226): 28.4 µM (inactive)
- GI50 (OVCAR-5): 13.9 µM (inactive)
- GI50 (OVCAR-3): 53 µM (inactive)
- GI50 (RXF 631): 14.5 µM (inactive)
- GI50 (CAKI-1): 14.5 µM (inactive)
- GI50 (OVCAR-8): 25.9 µM (inactive)
- GI50 (Malme-3M): 31 µM (inactive)
- GI50 (SN12C): 26.7 µM (inactive)
- GI50 (UACC-62): 12.9 µM (inactive)
- GI50 (SR): 15.9 µM (inactive)
- GI50 (HOP-62): 20.5 µM (inactive)

Compound: COc1cc([C@@H]2c3cc4c(cc3[C@@H](NC(=O)c3ccc([N+](=O)[O-])cc3)C3COC(=O)[C@@H]32)OCO4)cc(OC)c1O (some centres undefined)
- GI50 (A549): 0.0189 µM (active)
- GI50 (NCI-H460): < 0.01 µM (active)
- GI50 (SK-MEL-5): 0.361 µM (active)
- GI50 (UO-31): 2.63 µM (inactive)
- GI50 (ACHN): 0.194 µM (active)
- GI50 (SF-295): 0.249 µM (active)
- GI50 (SNB-78): 1.92 µM (inactive)
- GI50 (SK-MEL-2): 2.83 µM (inactive)
- GI50 (SW-620): 0.147 µM (active)
- GI50 (HCT-116): 0.678 µM (active)
- GI50 (TK-10): 2.03 µM (inactive)
- GI50 (CCRF-CEM): 0.124 µM (active)
- GI50 (HOP-92): 0.7 µM (active)
- GI50 (MOLT-4): < 0.01 µM (active)
- GI50 (LXFL 529): 3.13 µM (inactive)
- GI50 (K562): 0.889 µM (active)
- GI50 (OVCAR-4): 8.04 µM (inactive)
- GI50 (KM-20L2): 0.615 µM (active)
- GI50 (SNB-19): 0.315 µM (active)
- GI50 (HT-29): 1.58 µM (inactive)
- GI50 (UACC-257): 3.16 µM (inactive)
- GI50 (NCI-H226): 0.104 µM (active)
- GI50 (U-251): 0.108 µM (active)
- GI50 (HL-60): 0.0432 µM (active)
- GI50 (DMS-273): 0.111 µM (active)
- GI50 (SK-MEL-28): 1.97 µM (inactive)
- GI50 (IGROV-1): 0.261 µM (active)
- GI50 (SF-268): 1.6 µM (inactive)
- GI50 (M14): 0.653 µM (active)
- GI50 (EKVX): 0.975 µM (active)
- GI50 (SK-OV-3): 0.334 µM (active)
- GI50 (HCC 2998): 1.22 µM (inactive)
- GI50 (KM12): 1.08 µM (active)
- GI50 (XF498): 0.166 µM (active)
- GI50 (HCT-15): 1.57 µM
- GI50 (786-0): 0.242 µM (active)
- GI50 (RXF 393): 2.55 µM (inactive)
- GI50 (LOX IMVI): 0.318 µM (active)
- GI50 (M19-MEL): 1.25 µM (inactive)
- GI50 (SNB-75): 0.809 µM (active)
- GI50 (SF-539): 0.275 µM (active)
- GI50 (COLO 205): 2.13 µM (inactive)
- GI50 (DLD-1): 1.38 µM (inactive)
- GI50 (HOP-18): 67.8 µM (inactive)
- GI50 (DMS-114): 0.31 µM (active)
- GI50 (NCI-H23): 0.258 µM (active)
- GI50 (NCI-H522): 0.508 µM (active)
- GI50 (A498): 1.28 µM (inactive)
- GI50 (RPMI-8226): 0.256 µM (active)
- GI50 (OVCAR-5): 1.87 µM (inactive)
- GI50 (OVCAR-3): 1.76 µM (inactive)
- GI50 (RXF 631): 1.02 µM (active)
- GI50 (CAKI-1): 0.569 µM (active)
- GI50 (OVCAR-8): 0.923 µM (active)
- GI50 (Malme-3M): 0.817 µM (active)
- GI50 (SN12C): 0.215 µM (active)
- GI50 (UACC-62): 0.241 µM (active)
- GI50 (HOP-62): 0.128 µM (active)
